In publication PMC2720784 (Biochemistry, 2009):
Substitutions are numbered along the chain they refer to.

Key:
R343V hNCRD = target: T1, R343V hNCRD (Homo sapiens, UniProt P35247, R363V); test: Mannan competition assay, R343V; format: binding; conditions: for change in affinity of R343V relative to wild-type: competition assays
T1 sequence (P35247 223-375 R363V limits assumed): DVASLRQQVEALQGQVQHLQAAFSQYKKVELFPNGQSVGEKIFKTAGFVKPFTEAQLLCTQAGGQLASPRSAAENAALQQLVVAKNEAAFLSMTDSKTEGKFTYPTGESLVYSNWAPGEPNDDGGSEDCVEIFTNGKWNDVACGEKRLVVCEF

R343A hNCRD = target: T2, R343A hNCRD (Homo sapiens, UniProt P35247, R363A); test: Mannan competition assay, R343A; conditions: read-out: I50 for inhibition of binding to mannan, one experiment
T2 sequence (P35247 223-375 R363A limits assumed): T1 sequence (P35247 223-375 R363V limits assumed) with V141A

Phil82 IAV [1] = format: cell-based, influenza A virus; conditions: n=5
Phil82 IAV [2] = format: binding, influenza A virus
Phil82 IAV [3] = format: cell-based, influenza A virus

Molecule: OC[C@H]1OC(O)[C@@H](O)[C@@H](O)[C@@H]1O (stereo partly drawn) [D-mannose]
- change in affinity of R343V relative to wild-type (R343V hNCRD): no significant increase in affinity

Molecule: CO[C@H]1O[C@H](CO[C@H]2O[C@H](CO)[C@@H](O)[C@H](O)[C@@H]2O)[C@@H](O)[C@H](O[C@H]2O[C@H](CO)[C@@H](O)[C@H](O)[C@@H]2O)[C@@H]1O [TM core, methyl 3,6-Di-O-(α-D-mannopyranosyl)-α-D-mannopyranoside]
- change in affinity of R343V relative to wild-type (R343V hNCRD): no significant increase in affinity

Molecule: OC[C@H]1O[C@H](O[C@@H]2C(O)O[C@H](CO)[C@@H](O)[C@@H]2O)[C@@H](O)[C@@H](O)[C@@H]1O (stereo partly drawn) [alpha1–2 DM, alpha1–2 linked dimannose]
- increase in affinity as compared to wild-type (R343V hNCRD; R343V vs wild-type hNCRD): 7 fold
- change in affinity of R343V relative to wild-type (R343V hNCRD): greatly enhanced binding
- IC50 (R343V hNCRD; read-out: I50 for inhibition of binding to mannan, R343V, n=5): 210 ± 60 µM
- IC50 (R343A hNCRD): 362 µM

Molecule: OC[C@H]1O[C@H](O[C@H]2[C@H](O)[C@@H](CO)OC(O)[C@H]2O)[C@@H](O)[C@@H](O)[C@@H]1O (stereo partly drawn) [α1–3 dimannose]
- change in affinity of R343V relative to wild-type (R343V hNCRD): no significant increase in affinity

Molecule: OC[C@H]1O[C@H](OC[C@H]2OC(O)[C@@H](O)[C@@H](O)[C@@H]2O)[C@@H](O)[C@@H](O)[C@@H]1O (stereo partly drawn) [α1–6 dimannose]
- change in affinity of R343V relative to wild-type (R343V hNCRD): no significant increase in affinity

Molecule: hNCRD Wild type: N-terminally tagged trimeric neck+carbohydrate recognition domain fusion protein of human SP-D, wild type
- HA Inhibitory Concentration (Phil82 IAV [1]): >50 µg/mL
- binding to IAV, solid phase binding assay (Phil82 IAV [2]): no measurable binding
- viral neutralizing activity (Phil82 IAV [3]): lacked
